In patent publication US7253146B2, “Template-fixed peptidomimetics with antimicrobial activity” (Polyphor Ltd, priority 2001, dated 2007):
In brackets after ≈: the same amount, converted by molar mass. Where two headings read alike, the source gives them in different places. *1 amine or outer side, *2 acyl side, *3 side chain or, on linkers, in order; H or OH if unused. Where a SMILES comes first, the peptide text is derived from it. [ ]: non-standard residue; d: D form. The star is where a group is joined. X1 = CCCCCCC(=O)N[C@H]1C[C@@H](C(=O)[*:2])N([*:1])C1; Bip = N[C@@H](Cc1ccc(-c2ccccc2)cc1)C(=O)O; Cha = N[C@@H](CC1CCCCC1)C(=O)O; Orn = NCCC[C@H](N)C(=O)O; Bn = c1ccc(C*)cc1

What was measured:
[1] = test system: Candida albicans
Protocol: (§1) Lyophilized peptides were weighed on a Microbalance (Mettler MT5) and dissolved in sterile water containing 0.01% acetic acid Tachyplesin was purchased from Bachem Ltd. (Bubendorf Switzerland).
(§2) The antimicrobial activities of the peptides were determined by the standard NCCLS broth microdilution method (see ref 1, below) examined in sterile 96-wells plates (Nunclon polystyrene microtiter plates) in a total volume of 100 μl. […] 10^6 colony forming units (CFU)/ml for bacteria or 5×10^3 CFU/ml for Candida. Aliquots (50 μl) of the innocula were added to 50 μl of MH broth containing the peptide in serial twofold dilutions. The microorganisms used were Escherichia coli (ATCC 25922), Pseudomnonas aeruginosa (P. aeruginosa) (ATCC 27853), Stahylococcus aureus (ATCC 29213 and ATCC 25923) and Candida albicans. A selected number of peptides were screened for activity against a larger panel of gram-negative strains. These strains were; Escherichia coli ATCC 43827 and clinical isolates of Pseudomonas (P. aeruginosa V07 14482, P. aeruginosa 15288, P. aeruginosa V02 15328 and P. aeruginosa V09 16085) and Acinetobacter (Acinetobacter V04 19905/1, Acinetobacter V12 21143/1 and Acinetobacter V12 21193/1).

[2] = test system: Escherichia coli (ATCC 25922)
Protocol: as §1, §2

[3] = test system: Staphylococcus aureus ATCC 25923
Protocol: as §1, §2

[4] = test system: Staphylococcus aureus ATCC 29213
Protocol: as §1, §2

[5] = test system: human red blood cells (hRBC); assay: Hemolysis of human red blood cells at 100 μg/ml peptide; details: 100 μg/ml of peptide, 20% v/v hRBC, 1 hour at 37° C.
Protocol: Hemolysis of red blood cells is often employed for assessment of toxicity of related compounds such as protegrin or tachyplesin. Values are given as %-lysis of red blood cells observed at a concentration of 100 μg/ml.
The peptides were tested for their hemolytic activity against human red blood cells (hRBC). Fresh hRBC were washed three times with phosphate buffered saline (PBS) by centrifugation for 10 min at 2000×g. Peptides at a concentration of 100 μg/ml were incubated with 20% v/v hRBC for 1 hour at 37° C. The final erythrocyte concentration was appr. 0.9×10^9/ml. A value of 0% resp. 100% cell lysis was determined by incubation of the hRBC in the presence of PBS alone and resp. 0.1% Triton X-100 in H2O. The samples were centrifuged and the supernatant was 20 fold diluted in PBS buffer and the optical density (OD) of the sample at […] was measured. […] Percent hemolysis was calculated as follows: (OD540peptide/OD540H2O)×100%.

[6] = test system: Candida albicans; remark: listed apart in the source
Protocol: as §2
(§3) Salt sensitivity of the peptides was tested by the microtiter serial dilution assay as described above. Only MH broth was replaced by MH broth containing 1% NaCl.

[7] = test system: Escherichia coli ATCC 25922
Protocol: as §2, §3

[8] = test system: Pseudomonas putida ATCC 27853
Protocol: as §2, §3

[9] = test system: Staphylococcus aureus ATCC 25923; remark: listed apart in the source
Protocol: as §2, §3

[10] = test system: Staphylococcus aureus ATCC 29213; remark: listed apart in the source
Protocol: as §2, §3

Row | MIC Candida albicans [1] [µg/mL] | MIC Escherichia coli ATCC 25922 ([2]; ATCC 25922) [µg/mL] | MIC Staphylococcus aureus ATCC 25923 ([3]; ATCC 25923) [µg/mL] | MIC Staphylococcus aureus ATCC 29213 ([4]; ATCC 29213) [µg/mL] | Minimal inhibitory concentration (MIC) Candida albicans [6] [µg/mL] | Minimal inhibitory concentration (MIC) Escherichia coli ATCC 25922 [7] [µg/mL] | Minimal inhibitory concentration (MIC) Pseudomonas putida ATCC 27853 [8] [µg/mL] | Minimal inhibitory concentration (MIC) Staphylococcus aureus ATCC 25923 [9] [µg/mL] | Minimal inhibitory concentration (MIC) Staphylococcus aureus ATCC 29213 [10] [µg/mL] | SMILES | MIC Candida albicans ([1]; Table 8, Mueller-Hinton broth) [µg/mL] | MIC Escherichia coli ATCC 25922 ([2]; Table 8, Mueller-Hinton broth) [µg/mL] | MIC Staphylococcus aureus ATCC 25923 ([3]; Table 8, Mueller-Hinton broth) [µg/mL] | MIC Staphylococcus aureus ATCC 29213 ([4]; Table 8, Mueller-Hinton broth) [µg/mL] | Hemolyses hRBC (percentage hemolyses) [5] [%]
1 | 12.5 (≈ 6.7 µM) | 18.8 (≈ 10.1 µM) | 25 (≈ 13.4 µM) | 12.5 (≈ 6.7 µM) |  |  |  |  |  | CC(C)C[C@@H]1NC(=O)[C@H](CCCNC(=N)N)NC(=O)[C@H](CC(C)C)NC(=O)[C@@H]2CCCN2C(=O)[C@H]2CCCN2C(=O)[C@H](C(C)C)NC(=O)[C@H](CCCNC(=N)N)NC(=O)[C@H](Cc2ccc(O)cc2)NC(=O)[C@H](CCCN)NC(=O)[C@H](Cc2c[nH]c3ccccc23)NC(=O)[C@H](CCCNC(=N)N)NC(=O)[C@H](CCCNC(=N)N)NC(=O)[C@H](CCCCN)NC(=O)[C@H](CCCCN)NC1=O [Example 217] (cyclo(LRLKKRRW[Orn]YRV[dP]P)) |  |  |  |  | 
2 | 12.5 (≈ 6.46 µM) | 12.5 (≈ 6.46 µM) | 12.5 (≈ 6.46 µM) | 6.2 (≈ 3.21 µM) |  |  |  |  |  | CC(C)C[C@@H]1NC(=O)[C@H](CCCNC(=N)N)NC(=O)[C@H](CC(C)C)NC(=O)[C@H](CC2CCCCC2)NC(=O)[C@H]2CCCN2C(=O)[C@H](C(C)C)NC(=O)[C@H](CCCNC(=N)N)NC(=O)[C@H](Cc2ccc(O)cc2)NC(=O)[C@H](CCCCN)NC(=O)[C@H](Cc2c[nH]c3ccccc23)NC(=O)[C@H](CCCNC(=N)N)NC(=O)[C@H](CCCNC(=N)N)NC(=O)[C@H](CCCCN)NC(=O)[C@H](CCCCN)NC1=O [Example 254] (cyclo([Cha]LRLKKRRWKYRV[dP])) |  |  |  |  | 
3 | 6.2 (≈ 3.09 µM) | 3.1 (≈ 1.55 µM) | 6.2 (≈ 3.09 µM) | 6.2 (≈ 3.09 µM) | 25 (≈ 12.5 µM) | 6.2 (≈ 3.09 µM) | 6.2 (≈ 3.09 µM) | 25 (≈ 12.5 µM) | 25 (≈ 12.5 µM) | CCCCCCC(=O)N[C@H]1C[C@H]2C(=O)N[C@@H](CC(C)C)C(=O)N[C@@H](CCCNC(=N)N)C(=O)N[C@@H](CC(C)C)C(=O)N[C@@H](CCCCN)C(=O)N[C@@H](CCCCN)C(=O)N[C@@H](CCCNC(=N)N)C(=O)N[C@@H](CCCNC(=N)N)C(=O)N[C@@H](Cc3c[nH]c4ccccc34)C(=O)N[C@@H](CCCCN)C(=O)N[C@@H](Cc3ccc(O)cc3)C(=O)N[C@@H](CCCNC(=N)N)C(=O)N[C@@H](C(C)C)C(=O)N3CCC[C@@H]3C(=O)N2C1 [Example 256] (cyclo(KKRRWKYRV[dP][X1]LRL)) |  |  |  |  | 

More lines, now with the values behind:

Row | SMILES | MIC Candida albicans [1] [µg/mL] | MIC Escherichia coli ATCC 25922 ([2]; ATCC 25922) [µg/mL] | MIC Staphylococcus aureus ATCC 25923 ([3]; ATCC 25923) [µg/mL] | MIC Staphylococcus aureus ATCC 29213 ([4]; ATCC 29213) [µg/mL] | Minimal inhibitory concentration (MIC) Candida albicans [6] [µg/mL] | Minimal inhibitory concentration (MIC) Escherichia coli ATCC 25922 [7] [µg/mL] | Minimal inhibitory concentration (MIC) Pseudomonas putida ATCC 27853 [8] [µg/mL] | Minimal inhibitory concentration (MIC) Staphylococcus aureus ATCC 25923 [9] [µg/mL] | Minimal inhibitory concentration (MIC) Staphylococcus aureus ATCC 29213 [10] [µg/mL] | MIC Candida albicans ([1]; Table 8, Mueller-Hinton broth) [µg/mL] | MIC Escherichia coli ATCC 25922 ([2]; Table 8, Mueller-Hinton broth) [µg/mL] | MIC Staphylococcus aureus ATCC 25923 ([3]; Table 8, Mueller-Hinton broth) [µg/mL] | MIC Staphylococcus aureus ATCC 29213 ([4]; Table 8, Mueller-Hinton broth) [µg/mL] | Hemolyses hRBC (percentage hemolyses) [5] [%]
4 | CC(C)C[C@@H]1NC(=O)[C@H](CCCNC(=N)N)NC(=O)[C@H](CC(C)C)NC(=O)[C@@H]2CCCN2C(=O)[C@H]2CCCN2C(=O)[C@H](C(C)C)NC(=O)[C@H](CCCNC(=N)N)NC(=O)[C@H]([C@@H](C)OCc2ccccc2)NC(=O)[C@H](CCCCN)NC(=O)[C@H](Cc2c[nH]c3ccccc23)NC(=O)[C@H](CCCNC(=N)N)NC(=O)[C@H](CCCNC(=N)N)NC(=O)[C@H](CCCCN)NC(=O)[C@H](CCCCN)NC1=O [Example 206] (cyclo(LRLKKRRWKT(Bn)RV[dP]P)) | 6.2 (≈ 3.25 µM) | 6.2 (≈ 3.25 µM) | 12.5 (≈ 6.56 µM) | 12.5 (≈ 6.56 µM) |  |  |  |  |  |  |  |  |  | 
5 | CC(C)C[C@@H]1NC(=O)[C@H](Cc2c[nH]c3ccccc23)NC(=O)[C@H](CC(C)C)NC(=O)[C@@H]2CCCN2C(=O)[C@H]2CCCN2C(=O)[C@H](C(C)C)NC(=O)[C@H](CCCNC(=N)N)NC(=O)[C@H](Cc2ccc(O)cc2)NC(=O)[C@H](CCCNC(=N)N)NC(=O)[C@H](Cc2ccc(-c3ccccc3)cc2)NC(=O)[C@H](CCCNC(=N)N)NC(=O)[C@H](CCCNC(=N)N)NC(=O)[C@H](CCCCN)NC(=O)[C@H](CCCCN)NC1=O [Example 232] (cyclo(LWLKKRR[Bip]RYRV[dP]P)) |  |  |  |  |  |  |  |  |  | 9.4 (≈ 4.76 µM) | 6.2 (≈ 3.14 µM) | 6.2 (≈ 3.14 µM) | 9.4 (≈ 4.76 µM) | 1.5
